Results published in the supplement of paper PMC11061612.

Assays:
AZD5991 = compound: Cc1c2c(nn1C)CSCc1cc(n(C)n1)CSc1cc(c3ccccc3c1)OCCCc1c(C(=O)O)n(C)c3c-2c(Cl)ccc13 [AZD5991]; details: max 1 µM
In short: (§1)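 After 24 hours at 37°C and 5% CO2 in 1536-well plates holding 7.5 μl of DMEM/F12 or RPMI with 10% FBS, cancer cell lines were dosed for 72 hours, with final DMSO typically 0.2%. Viability came from CellTiter-Glo 2.0 luminescence, scaled between the means of blank wells and DMSO wells. A non-linear mixed effects model fitted a two-parameter logistic curve to each dose response to give the single-agent IC50.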

Alisertib = compound: COc1cc(Nc2ncc3c(n2)-c2ccc(Cl)cc2C(c2c(F)cccc2OC)=NC3)ccc1C(=O)O [Alisertib]; details: max 10 µM
In short: as §1

Taselisib = compound: Cc1nc(-c2cn3c(n2)-c2ccc(-c4cnn(C(C)(C)C(N)=O)c4)cc2OCC3)n(C(C)C)n1 [Taselisib]; details: max 10 µM
In short: as §1

AZD1390 = compound: CC(C)n1c(=O)n(C)c2cnc3cc(F)c(-c4ccc(OCCCN5CCCCC5)nc4)cc3c21 [AZD1390]; details: max 0.3 µM
In short: as §1

Prexasertib = compound: COc1cccc(OCCCN)c1-c1cc(Nc2cnc(C#N)cn2)n[nH]1 [Prexasertib]; details: max 1 µM
In short: as §1

AZD8186 = compound: C[C@@H](Nc1cc(F)cc(F)c1)c1cc(C(=O)N(C)C)cc2c(=O)cc(N3CCOCC3)oc12 [AZD8186]; details: max 10 µM
In short: as §1

Carboplatin = compound: C1CC(C1)(C(=O)[O-])C(=O)[O-].N.N.[Pt+2] [Carboplatin]; details: max 10 µM
In short: as §1

Venetoclax = compound: CC1(C)CCC(CN2CCN(c3ccc(C(=O)NS(=O)(=O)c4ccc(NCC5CCOCC5)c([N+](=O)[O-])c4)c(Oc4cnc5[nH]ccc5c4)c3)CC2)=C(c2ccc(Cl)cc2)C1 [Venetoclax]; details: max 1 µM
In short: as §1

Trametinib = compound: CC(=O)Nc1cccc(-n2c(=O)n(C3CC3)c(=O)c3c(Nc4ccc(I)cc4F)n(C)c(=O)c(C)c32)c1 [Trametinib]; details: max 1 µM
In short: as §1

AZD7648 = compound: Cc1cc2ncnn2cc1Nc1ncc2c(n1)n(C1CCOCC1)c(=O)n2C [AZD7648]; details: max 10 µM
In short: as §1

5-Fluorouracil = compound: O=c1[nH]cc(F)c(=O)[nH]1 [5-Fluorouracil]; details: max 20 µM
In short: as §1

[1] = compound: O=C(Nc1ccc2[nH]nc(-c3ccncc3)c2c1)[C@@H]1CCN(CC(=O)N2CCN(c3ccc(-c4ncccn4)cc3)CC2)C1; details: max 5 µM
In short: as §1

Gefitinib = compound: COc1cc2ncnc(Nc3ccc(F)c(Cl)c3)c2cc1OCCCN1CCOCC1 [Gefitinib]; details: max 10 µM
In short: as §1

Etoposide = compound: COc1cc([C@@H]2c3cc4c(cc3[C@@H](O[C@@H]3O[C@@H]5CO[C@@H](C)O[C@H]5[C@H](O)[C@H]3O)[C@H]3COC(=O)[C@H]23)OCO4)cc(OC)c1O [Etoposide]; details: max 10 µM
In short: as §1

MK-2206 = compound: NC1(c2ccc(-c3nc4ccn5c(=O)[nH]nc5c4cc3-c3ccccc3)cc2)CCC1 [MK-2206]; details: max 10 µM
In short: as §1

Crizotinib = compound: C[C@@H](Oc1cc(-c2cnn(C3CCNCC3)c2)cnc1N)c1c(Cl)ccc(F)c1Cl [Crizotinib]; details: max 10 µM
In short: as §1

AZD1775 = compound: C=CCn1c(=O)c2cnc(Nc3ccc(N4CCN(C)CC4)cc3)nc2n1-c1cccc(C(C)(C)O)n1 [AZD1775]; details: max 3 µM
In short: as §1

Savolitinib = compound: C[C@@H](c1ccc2nccn2c1)n1nnc2ncc(-c3cnn(C)c3)nc21 [Savolitinib]; details: max 1 µM
In short: as §1

AZD5153 = compound: COc1nnc2ccc(N3CCC(c4ccc(OCCN5CCN(C)C(=O)[C@H]5C)cc4)CC3)nn12 [AZD5153]; details: max 1 µM
In short: as §1

Selumetinib = compound: Cn1cnc2c(F)c(Nc3ccc(Br)cc3Cl)c(C(=O)NOCCO)cc21 [Selumetinib]; details: max 10 µM
In short: as §1

Olaparib = compound: O=C(c1cc(Cc2n[nH]c(=O)c3ccccc23)ccc1F)N1CCN(C(=O)C2CC2)CC1 [Olaparib]; details: max 10 µM
In short: as §1

AZD4320 = compound: CN(CC[C@H](CSC1=CC=CC=C1)NC2=C(C=C(C=C2)S(=O)(=O)NC(=O)C3=CC=C(C=C3)N4CCC(CC4)[C@H](C5=CC=CC=C5C6=CC=C(C=C6)Cl)O)S(=O)(=O)C(F)(F)F)CCO [AZD4320]; details: max 1 µM
In short: as §1

Gemcitabine = compound: Nc1ccn([C@@H]2O[C@H](CO)[C@@H](O)C2(F)F)c(=O)n1 [Gemcitabine]; details: max 0.3 µM
In short: as §1

AZD6738 = compound: C[C@@H]1COCCN1C2=NC(=NC(=C2)C3(CC3)[S@](=N)(=O)C)C4=C5C=CNC5=NC=C4 [AZD6738]; details: max 10 µM
In short: as §1

AZD5363 = compound: C1CN(CCC1(C(=O)N[C@@H](CCO)C2=CC=C(C=C2)Cl)N)C3=NC=NC4=C3C=CN4 [AZD5363]; details: max 10 µM
In short: as §1

Doxorubicin = compound: COc1cccc2c1C(=O)c1c(O)c3c(c(O)c1C2=O)C[C@@](O)(C(=O)CO)C[C@@H]3O[C@H]1C[C@H](N)[C@H](O)[C@H](C)O1 [Doxorubicin]; details: max 1 µM
In short: as §1

SRA737 = compound: N#Cc1cnc(Nc2cc(NC[C@H]3CNCCO3)c(C(F)(F)F)cn2)cn1 [SRA737]; details: max 10 µM
In short: as §1

Paclitaxel = compound: CC(=O)O[C@H]1C(=O)[C@@]2(C)[C@H]([C@H](OC(=O)c3ccccc3)[C@]3(O)C[C@H](OC(=O)[C@H](O)[C@@H](NC(=O)c4ccccc4)c4ccccc4)C(C)=C1C3(C)C)[C@]1(OC(C)=O)CO[C@@H]1C[C@@H]2O [Paclitaxel]; details: max 3 µM
In short: as §1

Lapatinib = compound: CS(=O)(=O)CCNCc1ccc(-c2ccc3ncnc(Nc4ccc(OCc5cccc(F)c5)c(Cl)c4)c3c2)o1 [Lapatinib]; details: max 10 µM
In short: as §1

AZD2811 = compound: CCN(CCO)CCCOc1ccc2c(Nc3cc(CC(=O)Nc4cccc(F)c4)[nH]n3)ncnc2c1 [AZD2811]; details: max 1 µM
In short: as §1

SN-38 = compound: CCc1c2c(nc3ccc(O)cc13)-c1cc3c(c(=O)n1C2)COC(=O)[C@]3(O)CC [SN-38]; details: max 0.3 µM
In short: as §1

AZD0156 = compound: CN(C)CCCOc1ccc(-c2ccc3ncc4c(c3c2)n(C2CCOCC2)c(=O)n4C)cn1 [AZD0156]; details: max 3 µM
In short: as §1

SG3199 = compound: CC1=CN2[C@@H](C1)C=NC3=CC(=C(C=C3C2=O)OC)OCCCCCOC4=C(C=C5C(=C4)N=C[C@@H]6CC(=CN6C5=O)C)OC [SG3199]; details: max 0.001 µM
In short: as §1

Dasatinib = compound: CC1=C(C(=CC=C1)Cl)NC(=O)C2=CN=C(S2)NC3=CC(=NC(=N3)C)N4CCN(CC4)CCO [Dasatinib]; details: max 2 µM
In short: as §1

Palbociclib = compound: CC(=O)c1c(C)c2cnc(Nc3ccc(N4CCNCC4)cn3)nc2n(C2CCCC2)c1=O [Palbociclib]; details: max 10 µM
In short: as §1

| Cell Line | IC50, cell viability 72 h (AZD5991) [µM] | IC50, cell viability 72 h (Alisertib) [µM] | IC50, cell viability 72 h (Taselisib) [µM] | IC50, cell viability 72 h (AZD1390) [µM] | IC50, cell viability 72 h (Prexasertib) [µM] | IC50, cell viability 72 h (AZD8186) [µM] | IC50, cell viability 72 h (Carboplatin) [µM] | IC50, cell viability 72 h (Venetoclax) [µM] | IC50, cell viability 72 h (Trametinib) [µM] | IC50, cell viability 72 h (AZD7648) [µM] | IC50, cell viability 72 h (5-Fluorouracil) [µM] | IC50, cell viability 72 h [1] [µM] | IC50, cell viability 72 h (Gefitinib) [µM] | IC50, cell viability 72 h (Etoposide) [µM] | IC50, cell viability 72 h (MK-2206) [µM] | IC50, cell viability 72 h (Crizotinib) [µM] | IC50, cell viability 72 h (AZD1775) [µM] | IC50, cell viability 72 h (Savolitinib) [µM] | IC50, cell viability 72 h (AZD5153) [µM] | IC50, cell viability 72 h (Selumetinib) [µM] | IC50, cell viability 72 h (Olaparib) [µM] | IC50, cell viability 72 h (AZD4320) [µM] | IC50, cell viability 72 h (Gemcitabine) [µM] | IC50, cell viability 72 h (AZD6738) [µM] | IC50, cell viability 72 h (AZD5363) [µM] | IC50, cell viability 72 h (Doxorubicin) [µM] | IC50, cell viability 72 h (SRA737) [µM] | IC50, cell viability 72 h (Paclitaxel) [µM] | IC50, cell viability 72 h (Lapatinib) [µM] | IC50, cell viability 72 h (AZD2811) [µM] | IC50, cell viability 72 h (SN-38) [µM] | IC50, cell viability 72 h (AZD0156) [µM] | IC50, cell viability 72 h (SG3199) [µM] | IC50, cell viability 72 h (Dasatinib) [µM] | IC50, cell viability 72 h (Palbociclib) [µM] |
| --- | --- | --- | --- | --- | --- | --- | --- | --- | --- | --- | --- | --- | --- | --- | --- | --- | --- | --- | --- | --- | --- | --- | --- | --- | --- | --- | --- | --- | --- | --- | --- | --- | --- | --- | --- |
| Hs-578-T (Breast Carcinoma) | > 1 | 3.97 | 2.19 | > 0.3 | 0.0123 | 1.71 | > 10 | > 1 | > 1 | > 10 | > 20 | > 5 | > 10 | > 10 | 5.65 | > 10 | 0.394 | > 1 | 0.156 | > 10 | > 10 | > 1 | > 0.3 | 1.81 | 2.37 | 0.3 | > 10 | < 0.003 | > 10 | 0.435 | > 0.3 | > 3 | > 0.001 | 0.0668 | > 10 |
| KELLY (Neuroblastoma) | 0.378 | 0.237 | > 10 | > 0.3 | 0.00118 | > 10 | > 10 | 0.204 | > 1 | > 10 | 12.6 | > 5 | > 10 | 2.53 | > 10 | 1.98 | 0.0645 | > 1 | > 1 | > 10 | > 10 | > 1 | 0.00387 | 1.53 | > 10 | 0.142 | 0.199 | 0.0108 | 7.36 | 0.333 | 0.00725 | > 3 | > 0.001 | > 2 | > 10 |
